In patent US20230061859A1, “PYRIDO[2,3-D]PYRIMIDINE HIV-1 REVERSE TRANSCRIPTASE INHIBITOR WB3, PREPARATION METHOD AND APPLICATION THEREOF” (SHAN DONG UNIVERSITY, priority 2020, published 2023):

Experiments:
[1] = test system: HIV-1 mutant strain RV2 (K101E+Y181C+G190A); experiment: Anti-HIV activity, luciferase single-round infection of TZM-bl cells, RV-2; assay type: cell-based; conditions: Human immunodeficiency virus 1, TZM-bl, read-out: EC50 RV-2
Protocol: (§1) The target compound WB3 was evaluated its activity against HIV-1 NL4-3, HIV-1 mutant strains GH9 (K101P+K103N+V108I), RV1 (K101E+Y181V), RV2 (K101E+Y181C+G190A), RV3 (K101E+Y181C+E138K), RV4 (L100I+M230I) and RV5 (M230L). Rilpivirine (RPV) was selected as control drug.
(§2) Inhibition of HIV-1 infection was measured as reduction in luciferase gene expression after a single round of virus infection of TZM-bl cells. Briefly, 200 TCID50 of virus (NL4-3, GH9, RV-1, RV-2, RV-3, RV-4 and RV-5) was used to infect TZM-bl cells in the presence of various concentrations of compounds. Two days after infection, the culture medium was removed from each well and 100 μL of Bright Glo reagent (Promega, Luis Obispo, Calif.) was added to the cells for measurement of luminescence with a Victor 2 luminometer. […] The cytotoxicity of compounds was determined using a colorimetric 2,3-bis-(2-methoxy-4-nitro-5-sulfophenyl)-2H-tetrazolium-5-carboxanilide (XTT) assay. An amount of 100 μL of the test compounds at graded concentrations was added to equal volumes of cells (5×10^5/mL) in wells of a 96-well plate. Incubation at 37° C. for four days, then 50 μL of XTT solution (1 mg/mL) containing 0.02 μM phenazine methosulfate (PMS) was added. After four hours, the absorbance at 450 nm was measured with an ELISA reader. The CC50 values were calculated using the CalsuSyn computer program as described above.

[2] = test system: HIV-1 mutant strain RV1 (K101E+Y181V); experiment: Anti-HIV activity, luciferase single-round infection of TZM-bl cells, RV-1; assay type: cell-based; conditions: Human immunodeficiency virus 1, TZM-bl, read-out: EC50 RV-1
Protocol: as §1, §2

Cytotoxicity, XTT assay = assay type: cell-based; conditions: human, mock-infected TZM-bl cells
Protocol: as §2

[3] = test system: HIV-1 mutant strain RV5 (M230L); experiment: Anti-HIV activity, luciferase single-round infection of TZM-bl cells, RV-5; assay type: cell-based; conditions: Human immunodeficiency virus 1, TZM-bl, read-out: EC50 RV-5
Protocol: as §1, §2

[4] = test system: HIV-1 mutant strain RV3 (K101E+Y181C+E138K); experiment: Anti-HIV activity, luciferase single-round infection of TZM-bl cells, RV-3; assay type: cell-based; conditions: Human immunodeficiency virus 1, TZM-bl, read-out: EC50 RV-3
Protocol: as §1, §2

[5] = test system: HIV-1 mutant strain GH9 (K101P+K103N+V108I); experiment: Anti-HIV activity, luciferase single-round infection of TZM-bl cells, GH9; assay type: cell-based; conditions: for EC50: Human immunodeficiency virus 1, TZM-bl, read-out: EC50 GH9
Protocol: as §1, §2

[6] = test system: HIV-1 mutant strain RV4 (L100I+M230I); experiment: Anti-HIV activity, luciferase single-round infection of TZM-bl cells, RV-4; assay type: cell-based; conditions: Human immunodeficiency virus 1, TZM-bl, read-out: EC50 RV-4
Protocol: as §1, §2

[7] = test system: HIV-1 NL4-3 (wild-type HIV-1 viral strain); experiment: Anti-HIV activity, luciferase single-round infection of TZM-bl cells, NL4-3; assay type: cell-based; conditions: Human immunodeficiency virus 1, NL43, wild-type HIV-1 NL4-3
Protocol: as §1, §2

[8] = Pharmacokinetics by single iv and po administration in Wistar rats; assay type: in vivo
Protocol: Then, WB3 was evaluated its pharmacokinetics profiles by single iv and po administration in Wistar rats. […] These favorable PK results are sufficient to support the ability of WB3 to become an orally bioavailable NNRTIs drug candidate.
All the samples were then centrifuged at 8000 rpm for 8 min to separate plasma, which was stored at −78° C. until analysis. […] Standard curves for WB3 in blood were generated by the addition of various concentrations of WB3 together with internal standard to blank plasma.
The plasma pharmacokinetic data were analyzed by using the […] of DAS 2.0 pharmacokinetic program. The main pharmacokinetic parameters (Cmax, AUC, Tmax, T1/2, and CL) were calculated.

Work on `Cc1cc(/C=C/C#N)cc(C)c1Nc1ccnc(Nc2ccc(C#N)cc2)n1` [RPV, Rilpivirine, reference compound] yielded an EC50 [1] of 24.3 ± 5.73 nM, an EC50 [2] of 45.6 ± 12.6 nM and a CC50 at 4 days (Cytotoxicity, XTT assay) greater than 341 nM. It also gave an EC50 [3] of 10.4 ± 3.27 nM, an EC50 [4] of 88.1 ± 37.4 nM and an EC50 [5] greater than 273 nM. It also gave an EC50 [6] of 9.82 ± 2.35 nM and an EC50 [7] of 0.96 ± 0.3 nM.
For `Cc1cc(/C=C/C#N)cc(C)c1Oc1nc(NC2CCN(Cc3ccc(S(C)(=O)=O)cc3)CC2)nc2ncccc12` [WB3], the EC50 [1] was 29 ± 10.9 nM, the EC50 [2] was 18.3 ± 5.8 nM and the CC50 at 4 days (Cytotoxicity, XTT assay) was greater than 44 nM. It also gave an EC50 [3] of 6.15 ± 2.29 nM, an EC50 [4] greater than 106 nM and a CL ([8]; iv 2 mg/kg (Table 2)) of 20.6 ± 4.50 mL. The Cmax ([8]; male, rat, plasma, iv 2 mg/kg) was 1490 ng/mL, the “fold potency versus rilpivirine against GH9” value ([5]; EC50 ratio to rilpivirine, GH9 strain) was “up to 200 fold” and the EC50 [5] was 1.37 nM. The EC50 [6] was 9.32 ± 2.46 nM and the EC50 [7] was 1.16 nM.
